Columns and labels:
human LPA1 [1] = target: T1, human LPA1 (Homo sapiens, UniProt Q92633); assay: In vitro LPA1 calcium flux antagonist assay - Bioduro protocol; format: cell-based; settings: CHO-K1 cells overexpressing human LPA1 and G15a, LPA challenge at EC80
T1 construct: expressed in transfected cells; host or cells: CHO-K1
How it was run: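 Calcium mobilization read on FLIPR after EC80 LPA was added to compound-pretreated (30 min) CHO-K1 cells co-expressing human LPA1 and G15a. Cells were starved 4 h and dye-loaded with Fluo-8 AM/2.5 mM probenecid in HBSS-Hepes; inhibition normalized between DMSO and LPA-control RFU.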

human LPA1 [2] = target: T1, human LPA1; assay: In vitro LPA1 functional antagonist assay (calcium mobilization, FLIPR); format: cell-based; settings: CHO-K1 cells overexpressing human LPA1, Oleoyl LPA challenge at EC80
Protocol: In Vitro LPA1 Functional Antagonist Assay
CHO-K1 cells overexpressing human LPA1 were seeded in a total volume of 20 μL into black-walled, clear-bottom. Poly-D-lysine coated 384-well microplates and incubated at 37° C., for the appropriate time prior to testing. Assays were performed in 1× Dye Loading Buffer consisting of 1× Dye, 1× Additive A and 2.5 mM Probenecid in HBSS/20 mM Hepes. Probenicid was prepared fresh. Cells were loaded with dye prior to testing. Media was aspirated from cells and replaced with 20 μL Dye Loading Buffer. Cells were incubated for 30-60 minutes at 37° C. After dye loading, cells were removed from the incubator and 10 μL 3× test compound was added. Cells were incubated for 30 minutes at room temperature in the dark to equilibrate plate temperature followed by Oleoyl LPA challenge at EC80. Compound antagonist activity was measured on a FLIPR Tetra (MSD). Calcium mobilization was monitored for 2 minutes and 10 μL Oleoyl LPA in HBSS/20 mM Hepes was added to the cells 5 seconds into the assay. For LPA EC80 determination, after dye loading, cells were removed from the incubator and 10 μL HBSS/20 mM Hepes was added. 3× vehicle was included in the buffer. Cells were incubated for 30 minutes at room temperature in the dark to equilibrate plate temperature. Intermediate dilution of LPA stocks was performed to generate 4×LPA samples in assay buffer. LPA agonist activity was measured on a FLIPR Tetra (MSD). Calcium mobilization was monitored for 2 minutes and 10 μL 4×LPA sample in HBSS/20 mM Hepes was added to the cells 5 seconds into the assay. Compound activity was analyzed using CBIS data analysis suite (ChemInnovation, CA). Percentage inhibition is calculated using the following formula: % Inhibition=100%×(1−(mean RFU of test sample−mean RFU of vehicle control)/(mean RFU of LPA control−mean RFU of vehicle control)).
Table B1 and Table B2 show the biological activity of compounds in in vitro LPA1 functional antagonist assay. Activity of the tested compounds provided in Table B1 is as follows: +++=IC50<1 μM; ++=IC50 1 μM−10 μM; +=IC50>10 μM.

[3] = calcium mobilization on FLIPR Tetra, read-out: IC50
[4] = Table B3, read-out: Activity (IC50 class)
[5] = Table B1, read-out: Activity (IC50 class)

T1 sequence (Q92633 whole entry): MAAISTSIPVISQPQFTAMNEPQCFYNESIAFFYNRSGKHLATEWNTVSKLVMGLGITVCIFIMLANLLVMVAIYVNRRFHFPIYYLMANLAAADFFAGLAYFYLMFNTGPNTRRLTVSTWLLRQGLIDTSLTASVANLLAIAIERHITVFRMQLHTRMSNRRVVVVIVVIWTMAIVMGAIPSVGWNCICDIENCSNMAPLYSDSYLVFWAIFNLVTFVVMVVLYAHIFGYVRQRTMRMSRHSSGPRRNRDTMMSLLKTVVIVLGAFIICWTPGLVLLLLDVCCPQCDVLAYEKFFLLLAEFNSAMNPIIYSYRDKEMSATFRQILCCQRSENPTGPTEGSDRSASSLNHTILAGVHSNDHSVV

Row | IC50 (human LPA1 [1]; [3]) [nM] | IC50 (human LPA1 [1]; [4]) [nM] | IC50 (human LPA1 [2]; [5]) [nM] | IC50 (human LPA1 [2]; Table B2, read-out: IC50) [nM] | SMILES
1 | 245 | 100 to 1000 | < 1000 | 13.6 | COc1cc(-c2ccc(OCCC(=O)O)cc2COC2Cc3ccccc3C2)cc(OC)c1C [Compound 105, 3-((2-(((2,3-dihydro-1H-inden-2-yl)oxy)methyl)-3′,5′-dimethoxy-4′-methyl-[1,1′-biphenyl]-4-yl)oxy)propanoic acid]
2 | 16.5 | < 100 |  | 10.3 | COc1cc(-c2ccc(NC3(C(=O)O)CCOCC3)cc2COC2CC2)c(F)c(OC)c1C [Compound 256, 4-((2-(cyclopropoxymethyl)-2′-fluoro-3′,5′-dimethoxy-4′-methyl-[1,1′-biphenyl]-4-yl)amino)tetrahydro-2H-pyran-4-carboxylic acid]
3 | 3.02 | < 100 |  | 7.53 | CCOc1cccc(-c2ccc(NC3(C(=O)O)CCOCC3)cc2COC2CC2)c1C [Compound 355, 4-((2-(cyclopropoxymethyl)-3′-ethoxy-2′-methyl-[1,1′-biphenyl]-4-yl)amino)tetrahydro-2H-pyran-4-carboxylic acid]
4 | 340 | 100 to 1000 | < 1000 | 27.2 | COc1cc(-c2ccc(NCCC(=O)O)cc2COC2Cc3ccccc3C2)cc(OC)c1C [Compound 101, 3-((2-(((2,3-dihydro-1H-inden-2-yl)oxy)methyl)-3′,5′-dimethoxy-4′-methyl-[1,1′-biphenyl]-4-yl)amino)propanoic acid]
5 | 94.1 | < 100 | < 1000 | 2.68 | COc1cc(-c2ccc(NC3(C(=O)O)CC3)cc2COC2Cc3ccccc3C2)cc(OC)c1C [Compound 109, 1-((2-(((2,3-dihydro-1H-inden-2-yl)oxy)methyl)-3′,5′-dimethoxy-4′-methyl-[1,1′-biphenyl]-4-yl)amino)cyclopropane-1-carboxylic acid]
6 | 0.763 | < 100 |  | 2.64 | CCOc1cc(OC)cc(-c2ccc(NC3(C(=O)O)CCOCC3)cc2CCC2CC2)c1F [Compound 298]
7 | 5.85 | < 100 |  | 7.15 | Cc1c(OC2CC2)cccc1-c1ccc(NC2(C(=O)O)CCOCC2)cc1COC1CC1 [Compound 294, 4-((3′-cyclopropoxy-2-(cyclopropoxymethyl)-2′-methyl-[1,1′-biphenyl]-4-yl)amino)tetrahydro-2H-pyran-4-carboxylic acid]

Reference: patent US11884627B2, “Compounds and compositions for treating conditions associated with LPA receptor activity” (Lhotse Bio, Inc., priority 2022, dated 2024)
